Measurements from ChEMBL document CHEMBL1126161, “3,4-Dihydroquinolin-2(1H)-ones as combined inhibitors of thromboxane A2 synthase and cAMP phosphodiesterase” (J Med Chem, 1992).

Legend:
Mus musculus [1] = assay: Protection against mortality in pulmonary thromboembolism model in mice at 1 mg/kg; type: functional
Homo sapiens [2] = species on record: Homo sapiens; assay: (§1) Ratio of IC50(PDE)/IC50(TXA2)
Mus musculus [3] = assay: Protection against mortality in pulmonary thromboembolism model in mice at 3 mg/kg; type: functional
Homo sapiens [4] = species on record: Homo sapiens; assay: In vitro inhibition of ADP-induced aggregation of human PRP in the presence of pig aortal microsomes (PAM).; type: functional
Phosphodiesterase 3 = Phosphodiesterase 3 (Homo sapiens, UniProt Q14432+Q13370); assay: Inhibition of human blood platelet c-AMP phosphodiesterase
Thromboxane-A synthase [5] = target: T1, Thromboxane-A synthase (Homo sapiens, UniProt P24557); assay: Compound was evaluated for the inhibition of human blood platelet, thromboxane A2 synthase
T1 sequence (P24557 whole entry): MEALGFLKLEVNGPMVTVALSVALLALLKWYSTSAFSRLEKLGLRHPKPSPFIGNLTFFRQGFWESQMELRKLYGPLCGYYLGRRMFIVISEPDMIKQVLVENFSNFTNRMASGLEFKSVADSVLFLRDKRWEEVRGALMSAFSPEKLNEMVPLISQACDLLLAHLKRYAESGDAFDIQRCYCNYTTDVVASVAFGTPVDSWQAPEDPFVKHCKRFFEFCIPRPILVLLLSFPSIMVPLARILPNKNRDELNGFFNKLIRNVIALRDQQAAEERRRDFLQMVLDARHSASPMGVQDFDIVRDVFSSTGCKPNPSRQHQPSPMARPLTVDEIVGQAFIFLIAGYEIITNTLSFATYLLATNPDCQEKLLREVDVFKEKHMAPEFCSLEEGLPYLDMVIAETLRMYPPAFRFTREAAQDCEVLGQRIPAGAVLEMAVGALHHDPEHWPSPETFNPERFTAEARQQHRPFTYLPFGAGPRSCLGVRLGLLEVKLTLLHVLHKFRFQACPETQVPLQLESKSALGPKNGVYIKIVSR

Homo sapiens [6] = species on record: Homo sapiens; assay: Inhibition of ADP-induced aggregation of human PRP in the absence of pig aortal microsomes (PAM); type: functional
Mus musculus [7] = assay: Protection against mortality in pulmonary thromboembolism model in mice at 9 mg/kg; type: functional
Homo sapiens [8] = species on record: Homo sapiens; assay: Ratio of IC50(w/oPAM)/IC50(w/PAM); type: functional
Rattus norvegicus [9] = assay: Effect of TXA2 synthase inhibitor (compound) on serum TXB2 level in rats at 50 mg/kg po, after 2 hr; type: functional
Homo sapiens [10] = species on record: Homo sapiens; assay: as §1; type: functional
Rattus norvegicus [11] = assay: Antihypertensive activity in conscious spontaneously hypertensive rat (SHR), percent change in heart rate (beats/min) after 2 hr at 10 mg/kg peroral dose; type: functional; conditions: route oral
Rattus norvegicus [12] = assay: Antihypertensive activity in conscious spontaneously hypertensive rat (SHR), percent change in heart rate (beats/min) after 4 hr at 10 mg/kg peroral dose; type: functional; conditions: route oral
Rattus norvegicus [13] = assay: Antihypertensive activity in conscious spontaneously hypertensive rat (SHR), percent change in heart rate (beats/min) after 1 hr at 10 mg/kg peroral dose; type: functional; conditions: route oral
Rattus norvegicus [14] = assay: Antihypertensive activity in conscious spontaneously hypertensive rat (SHR), percent change in Systolic blood pressure (SBP) after 2 hr at 10 mg/kg peroral dose; type: functional; conditions: route oral
Rattus norvegicus [15] = assay: Antihypertensive activity in conscious spontaneously hypertensive rat (SHR), percent change in Systolic blood pressure (SBP) after 1 hr; type: functional; parameters: concentration or dose not given beside the values
Rattus norvegicus [16] = assay: Antihypertensive activity in conscious spontaneously hypertensive rat (SHR), percent change in Systolic blood pressure (SBP) after 4 hr at 10 mg/kg peroral dose; type: functional; conditions: route oral
Thromboxane-A synthase [17] = target: T1, Thromboxane-A synthase; assay: Compound was evaluated for the inhibition of human blood platelet thromboxane A2 synthase
Mus musculus [18] = species on record: Mus musculus; assay: Time course of protection against mortality in a pulmonary thromboembolism model in mice after -7h; type: functional
Mus musculus [19] = species on record: Mus musculus; assay: Time course of protection against mortality in a pulmonary thromboembolism model in mice after -5h; type: functional
Homo sapiens [20] = species on record: Homo sapiens; assay: Inhibition of [14C]arachidonic acid induced platelet aggregation at 50 uM (Control TXB2 = 14.9+/-2.5); type: functional
Rattus norvegicus [21] = assay: Ex vivo inhibition of blood platelet aggregation in rats at 100 mg/kg peroral dose after 5 hr; type: functional; conditions: route oral
Rattus norvegicus [22] = assay: Ex vivo inhibition of blood platelet aggregation in rats at 100 mg/kg peroral dose after 3 hr; type: functional; conditions: route oral
Homo sapiens [23] = species on record: Homo sapiens; assay: Inhibition of [14C]arachidonic acid induced TXB2 formation at 5 uM (Control TXB2 = 14.9+/-2.5)
Mus musculus [24] = species on record: Mus musculus; assay: Time course of protection against mortality in a pulmonary thromboembolism model in mice after -3h; type: functional
Mus musculus [25] = assay: Protection against mortality in pulmonary thromboembolism model in mice at 12 mg/kg; type: functional
Homo sapiens [26] = species on record: Homo sapiens; assay: Inhibition of [14C]arachidonic acid induced platelet aggregation at 50 uM (Control 6-keto-PGF1-alpha = 1.45+/-0.6); type: functional
Rattus norvegicus [27] = assay: Ex vivo inhibition of blood platelet aggregation in rats at 100 mg/kg peroral dose after 8 hr; type: functional; conditions: route oral
Mus musculus [28] = assay: Protection against mortality in pulmonary thromboembolism model in mice at 30 mg/kg; type: functional
Mus musculus [29] = species on record: Mus musculus; assay: Time course of protection against mortality in a pulmonary thromboembolism model in mice after -1h; type: functional
Rattus norvegicus [30] = assay: Effect of TXA2 synthase inhibitor (compound) on serum TXB2 level in rats at 50 mg/kg po, after 2 hr.; type: functional

Question: Which survival at 1 mg/kg (Mus musculus [1]) does the source give for `O=C1CCc2cc(C(c3ccccc3)n3ccnc3)ccc2N1` (stereo not drawn) here?
Answer: 20%

Question: What about the Ratio (Homo sapiens [2]) of the same compound?
Answer: 114

Question: And the survival at 3 mg/kg (Mus musculus [3])?
Answer: 20%

Question: What about the IC50 (Homo sapiens [4]) of the same compound?
Answer: 0.35 µM

Question: What about the IC50 (Phosphodiesterase 3) of the same compound?
Answer: 40 µM

Question: What about the IC50 (Thromboxane-A synthase [5]) of the same compound?
Answer: 0.35 µM

Question: What about the IC50 (Homo sapiens [6]) of the same compound?
Answer: 44 µM

Question: And the survival at 9 mg/kg (Mus musculus [7])?
Answer: 40%

Question: `O=C1CCc2cc(C(c3ccccc3)c3cccnc3)ccc2N1` (stereo not drawn) was tested. Which IC50 (Homo sapiens [4]) did it give?
Answer: 3 µM

Question: What about the IC50 (Homo sapiens [6]) of the same compound?
Answer: 11 µM

Question: `O=C1CCc2cc(CCc3cccnc3)ccc2N1` was tested. Which IC50 (Homo sapiens [4]) did it give?
Answer: 8.5 µM

Question: `C=C(Cn1ccnc1)c1ccc2c(c1)CCC(=O)N2` was tested. Which IC50 (Homo sapiens [4]) did it give?
Answer: 7.6 µM

Question: What about the IC50 (Homo sapiens [6]) of the same compound?
Answer: 74 µM

Question: What about the Ratio (Homo sapiens [8]) of the same compound?
Answer: 9.7

Question: Which IC50 (Homo sapiens [4]) does the source give for `O=C1CCc2cc(-n3ccnc3)ccc2N1` here?
Answer: 2 µM

Question: And the IC50 (Phosphodiesterase 3)?
Answer: 16 µM

Question: What about the inhibition in vivo at 50 mg/kg (Rattus norvegicus [9]) of the same compound?
Answer: 77%

Question: And the IC50 (Thromboxane-A synthase [5])?
Answer: 2 µM

Question: And the IC50 (Homo sapiens [6])?
Answer: 80 µM

Question: What about the Ratio (Homo sapiens [10]) of the same compound?
Answer: 8

Question: What about the Ratio (Homo sapiens [8]) of the same compound?
Answer: 40

Question: How did the IC50 (Homo sapiens [4]) turn out when `CCCCCC(Cc1cccnc1)c1ccc2c(c1)CCC(=O)N2` (stereo not drawn) was run?
Answer: 37 µM

Question: How did the “Change in heart rate” value (Rattus norvegicus [11]) turn out when `O=C1CCc2cc(CCn3ccnc3)ccc2N1` was run?
Answer: 34%

Question: And the IC50 (Homo sapiens [4])?
Answer: 8.3 µM

Question: What about the “Change in heart rate” value (Rattus norvegicus [12]) of the same compound?
Answer: 12%

Question: And the “Change in heart rate” value (Rattus norvegicus [13])?
Answer: 17%

Question: And the “Change systolic BP” value (Rattus norvegicus [14])?
Answer: -2%

Question: What about the IC50 (Homo sapiens [6]) of the same compound?
Answer: 140 µM

Question: And the Ratio (Homo sapiens [8])?
Answer: 17

Question: What about the “Change systolic BP” value (Rattus norvegicus [15]) of the same compound?
Answer: -14%

Question: And the “Change systolic BP” value (Rattus norvegicus [16])?
Answer: -13%

Question: `Oc1ccc2cc(/C=C/n3ccnc3)ccc2n1` was tested. Which IC50 (Homo sapiens [4]) did it give?
Answer: 0.38 µM

Question: And the IC50 (Phosphodiesterase 3)?
Answer: 4 µM

Question: What about the IC50 (Homo sapiens [6]) of the same compound?
Answer: 2.8 µM

Question: And the Ratio (Homo sapiens [10])?
Answer: 10.5

Question: And the Ratio (Homo sapiens [8])?
Answer: 7.4

Question: What does the source list for `CCCCCC(Cn1ccnc1)c1ccc2c(c1)CCC(=O)N2` (stereo not drawn)?
Answer: IC50 (Homo sapiens [4]): 25 µM; IC50 (Phosphodiesterase 3): 14 µM; IC50 (Thromboxane-A synthase [17]): 25 µM

Question: What does the source list for `CC(Cn1ccnc1)c1ccc2c(c1)CCC(=O)N2` (stereo not drawn)?
Answer: IC50 (Homo sapiens [4]): 5.5 µM; IC50 (Homo sapiens [6]): 350 µM; Ratio (Homo sapiens [8]): 64

Question: `O=C1CCc2cc(/C=C/Cn3ccnc3)ccc2N1` was tested. Which “Change in heart rate” value (Rattus norvegicus [11]) did it give?
Answer: 15%

Question: And the IC50 (Homo sapiens [4])?
Answer: 1.7 µM

Question: And the “Change in heart rate” value (Rattus norvegicus [12])?
Answer: 14%

Question: What about the inhibition in vivo at 50 mg/kg (Rattus norvegicus [9]) of the same compound?
Answer: -28%

Question: What about the “Change in heart rate” value (Rattus norvegicus [13]) of the same compound?
Answer: 15%

Question: And the “Change systolic BP” value (Rattus norvegicus [14])?
Answer: -17%

Question: What about the IC50 (Homo sapiens [6]) of the same compound?
Answer: 160 µM

Question: And the Ratio (Homo sapiens [8])?
Answer: 94

Question: And the “Change systolic BP” value (Rattus norvegicus [15])?
Answer: -19%

Question: And the “Change systolic BP” value (Rattus norvegicus [16])?
Answer: 5%

Question: Which Survival (Mus musculus [18]) does the source give for `Cl.O=C(O)c1ccc(OCCn2ccnc2)cc1` [DAZOXIBEN HYDROCHLORIDE] here?
Answer: 10%

Question: What about the survival at 1 mg/kg (Mus musculus [1]) of the same compound?
Answer: 20%

Question: What about the Survival (Mus musculus [19]) of the same compound?
Answer: 20%

Question: And the inhibition at 50 µM (Homo sapiens [20])?
Answer: 1.5%

Question: And the inhibition in vivo at 100 mg/kg (Rattus norvegicus [21])?
Answer: 24.6%

Question: What about the inhibition in vivo at 100 mg/kg (Rattus norvegicus [22]) of the same compound?
Answer: 23.4%

Question: What about the TXB2 level at 5 µM (Homo sapiens [23]) of the same compound?
Answer: 2.4%

Question: What about the Survival (Mus musculus [24]) of the same compound?
Answer: 20%

Question: What about the survival at 12 mg/kg (Mus musculus [25]) of the same compound?
Answer: 50%

Question: And the 6-keto-PGF1α level at 50 µM (Homo sapiens [26])?
Answer: 25.2%

Question: And the inhibition in vivo at 100 mg/kg (Rattus norvegicus [27])?
Answer: 50.9%

Question: What about the survival at 30 mg/kg (Mus musculus [28]) of the same compound?
Answer: 50%

Question: What about the Survival (Mus musculus [29]) of the same compound?
Answer: 40%

Question: What about the inhibition in vivo at 50 mg/kg (Rattus norvegicus [30]) of the same compound?
Answer: 74%

Question: What about the survival at 9 mg/kg (Mus musculus [7]) of the same compound?
Answer: 40%

Question: Which IC50 (Thromboxane-A synthase [5]) does the source give for `O=c1ccc2cc(/C=C/n3ccnc3)ccc2[nH]1` here?
Answer: 0.38 µM
